Experimental data taken from US20040167217A1, “Neuroprotective effects of polyphenolic compounds” (priority 2003, published 2004).

Columns and labels:
HO-1 [1] = assay: HO-1 protein expression, Western blot, cortical neurons; assay type: cell-based, rat
Description: HO-1 and hsp70 protein levels were assessed by Western immunoblot technique using a polyclonal rabbit anti-HO-1 antibody (Stressgen; Victoria, Canada), and a polyclonal rabbit hsp70 antibody. Briefly, an equal amount of proteins (30 μg) for each sample was separated by SDS-polyacrylamide gel electrophoresis and transferred to nitrocellulose membranes, and the non-specific antibodies were blocked with 3% non-fat dried milk in PBS. Membranes were then probed with a polyclonal rabbit anti HO-1 antibody (Stressgen) (1:1000 dilution in Tris-buffered saline, pH 7,4) or with a monoclonal rabbit anti-Hsp72 antibody (Amersham Pharmacia Biotechnology) (1:1000 dilution in Tris-buffered saline, pH 7,4), that recognizes only the Hsp 70 inducible isoform. Blots were then visualized using an amplified alkaline phosphate kit from Sigma.

Male Wistar rats = assay: Brain lipid peroxides (FOX2) after T-BuOOH; assay type: in vivo, rat
Description: Male Wistar rats, weighing 140-180 g, were used for all experiments. Ten animals per experimental group were pre-administrated with curcumin, suitably suspended in distilled water, at the dose of 50 mg/kg per day, through oral intubation, for 7 days, before an intracerebroventricular injection of T-butylhydroperoxide (T-BuOOH) 2 μl of a 70% solution of phosphate buffered saline (PBS)^16. Lethality was assessed after administration of T-BuOOH at time points: 0, 2, 6, 12, and 24 h, and was expressed as the percentage of survival relative to the lethality observed in T-BuOOH plus Tween/saline vehicle (control) treated animals (FIG. 11A). […]
Briefly, brain areas were dissected and homogenized in ice cold 0.1 M, pH 7.5 phosphate buffer (final vol 1.1 ml). […] Hydroperoxides were quantitated by the FOX2 method^17. […] After centrifugation at 12,000×g for 5 min to remove any flocculated material, absorbance of the supernatant was then read at 560 nm.
Male Wistar rats, weighing 140-180 g, were used for all experiments. […] Lethality was assessed after administration of T-BuOOH at time points: 0, 2, 6, 12, and 24 h, and was expressed as the percentage of survival relative to the lethality observed in T-BuOOH plus Tween/saline vehicle (control) treated animals (FIG. 12A). […]

HO-1 [2] = assay: HO-1 protein expression, Western blot, astrocytes; assay type: cell-based
Description: Type 1 astrocytes (DI TNC1) were purchased from the American Type Culture Collection (Manassas, VA) and cultured in Dulbecco's modified Eagle's medium containing 4.5 g/l glucose, 2 mM glutamine, 100 units/ ml penicillin, and 0.1 mg/ml streptomycin and supplemented with 10% fetal bovine serum. Cells were grown in 75-cm^2 flasks and maintained at 37° C. in a humidified atmosphere of air and 5% CO2. Confluent cells were exposed to various concentrations of curcumin, CAPE, or Curcumin-95. After each treatment (6 or 24 h), cells were harvested for the determination of heme oxygenase activity, HO-1 protein expression, and intracellular glutathione. Astrocytes growing in 24 wells were exposed to polyphenolic compounds, and cell viability was determined at 24 h. After treatment with curcumin, or CAPE, samples of astrocytes were also analyzed for HO-1 protein expression using a Western immunoblot technique described previously^18,19. Briefly, an equal amount of proteins (30 μg) for each sample was separated by SDS-polyacrylamide gel electrophoresis and transferred overnight to nitrocellulose membranes, and the non-specific binding of antibodies was blocked with 3% non-fat dried milk in PBS. Membranes were then probed with a polyclonal rabbit anti-HO-1 antibody (Stressgen) (1:1000 dilution in Tris-buffered saline, pH 7.4) for 2 h at room temperature. After three washes with PBS, blots were visualized using an amplified alkaline phosphatase kit from Sigma (Extra-3A), and the relative density of bands was analyzed by the use of an imaging densitometer (model GS-700; Bio-Rad, Herts, UK). Blots shown are representative of three independent experiments.

[3] = tested on: Type 1 astrocytes (DI TNC1); assay: Intracellular glutathione (GSH, GSSG) in astrocytes; assay type: cell-based
Description: Type 1 astrocytes (DI TNC1) were purchased from the American Type Culture Collection (Manassas, VA) and cultured in Dulbecco's modified Eagle's medium containing 4.5 g/l glucose, 2 mM glutamine, 100 units/ ml penicillin, and 0.1 mg/ml streptomycin and supplemented with 10% fetal bovine serum. Cells were grown in 75-cm^2 flasks and maintained at 37° C. in a humidified atmosphere of air and 5% CO2. Confluent cells were exposed to various concentrations of curcumin, CAPE, or Curcumin-95. After each treatment (6 or 24 h), cells were harvested for the determination of heme oxygenase activity, HO-1 protein expression, and intracellular glutathione. […] GSH and GSSG levels were measured after 6- and 24- h exposure of astrocytes to curcumin and CAPE using a method previously described^19,20. Briefly, cells harvested in cold PBS were freeze-thawed three times, and an aliquot of this suspension was added to a buffer solution containing 12 mM EDTA and 10 mM 5,5′-dithiobis-(2-nitrobenzoic acid). Total glutathione was measured spectrophotometrically (optical density=412nm) using the glutathione reductase-recycling assay. To determine the amount of GSSG, an aliquot of the cell suspension was added to an equal volume of buffer containing EDTA and N-ethylmaleimide (10 mM). The sample was mixed and centrifuged, and the supernatant was passed through a C18 Sep-Pak cartridge (Waters, Milford, Mass.) to remove the excess N-ethylmaleimide. The sample was added to a cuvette containing 5,5′-dithiobis-(2-nitrobenzoic acid) and glutathione reductase, and the assay was performed as for the measurement of total glutathione. Intracellular glutathione was determined by comparison with a standard curve obtained with GSH and GSSG solutions and was expressed as nmoles/mg of protein.

Compound	HO-1 protein expression / HO-1 induction (HO-1 [1])	lipid peroxides in brain areas (oxidative damage) (Male Wistar rats; 20 mg/kg per day oral for 7 days before T-BuOOH)	concentration of maximal HO-1 protein expression (HO-1 [2]) [µM]	HO-1 protein levels (HO-1 [2]; low concentrations 15-50 μM)	intracellular GSH ([3]; 6 h, 50 μM)	intracellular GSH ([3]; 6 h, 15 and 30 μM)	intracellular GSH ([3]; 24 h, 50 μM)	intracellular GSSG ([3]; 24 h, 50 μM)	intracellular GSH ([3]; 24 h, 15 and 30 μM)	lipid peroxides in brain areas (oxidative damage) (Male Wistar rats; 50 mg/kg per day oral for 7 days before T-BuOOH, cortex, striatum, hippocampus, cerebellum)	HO-1 protein expression (HO-1 [2]; 50-100 μM)	HO-1 protein expression (HO-1 [2]; 6 h, 15 and 30 μM)	HO-1 protein expression (HO-1 [2]; 24 h after treatment)	glutathione oxidation (GSSG) ([3]; 6 h, 50 μM)	intracellular GSSG ([3]; 6 h, 15 and 30 μM)	intracellular GSH ([3]; 24 h, 15, 30, and 50 μM)	intracellular GSSG ([3]; 24 h, 15, 30, and 50 μM)
O=C(/C=C/c1ccc(O)c(O)c1)OCCc1ccccc1 [CAPE, Caffeic acid phenethyl ester]	strongly induce HO-1	prevented oxidative damages to neuronal tissues	30	substantial increase	did not affect GSH	elevation of GSH	significant depletion of GSH	concomitant elevation in GSSG	marked reduction								
COc1cc(C=CC(=O)CC(=O)C=Cc2ccc(O)c(OC)c2)ccc1O [curcumin, 1,7-bis[4-Hydroxy-3-methoxyphenyl]-1,6-heptadiene-3,5-dione]	directly correlated with HO-1 protein levels				without affecting the GSH content	significant increase				prevented the oxidative damages to neuronal tissues	failed to increase HO-1 expression	marked up-regulation of HO-1 protein	over-expression of HO-1 was also found	caused oxidation	significant increase	concentration-dependent decrease in GSH	gradual and substantial increase in GSSG levels
